Measurements as given in patent US20140178318A1, “NOVEL COMPOUNDS” (DSM IP ASSETS B.V., priority 2009, published 2014).

Assay: Comparative example: solubility of BMDBM in 1:1 mixture of C12-15 alkyl benzoate and other UV-filter
From the text: Where necessary the mixture was centrifuged in order to obtain a clear supernatant.

Solubility of BMDBM in C12-15 alkyl benzoate/UV-filter 1:1 (200 mg BMDBM with 1000 mg of 1:1 mixture, supernatant by HPLC after 1 month at RT): 3 wt.-%
Δ solubility related to cosmetic solvent (BMDBM) (C12-15 alkyl benzoate/UV-filter 1:1): −4 wt.-%
Δ solubility of BMDBM (C12-15 alkyl benzoate/UV-filter 1:1 versus C12-15 alkyl benzoate): −11 wt.-%
SMILES: CCCCC(CC)COc1ccc(-c2nc(-c3ccc(OC)cc3)nc(-c3ccc(OCC(CC)CCCC)cc3O)n2)c(O)c1 (stereo not drawn) [BEMT, bis-ethylhexyloxyphenol methoxyphenyl triazine]
